In patent US20140073637A1, “AMINO-SUBSTITUTED-ALKYLOXY-BENZO[E]PYRIDO[4,3-B]INDOLE DERIVATIVES AS NEW POTENT KINASE INHIBITORS” (INSTITUT CURIE, priority 2011, published 2014):

Key:
Aurora B [1] = molecular target: T1, Aurora B (Homo sapiens, UniProt Q96GD4); experiment: Kinase profiling in vitro at 1 μM; assay type: biochemical; conditions: compound at 1 μM, read-out: percentage of remaining activity of recombinant kinase
Protocol: (§1) The specificity of C14 was tested, in vitro, against 121 kinases representative of the kinome. Assays run in duplicate, at the concentration of 1 μM, were performed by MRC (Dundee, UK). Results are represented in FIG. 1. The main targets are highlighted in FIG. 1B.
(§2) In addition, the percentage of remaining activity of recombinant kinases Aurora kinases A and B and Checkpoint kinases 1 and 2 at the concentration of 1 μM of C1, C2 and C14 have been determined.
(§3) The profiling was performed at the MRC (Dundee University), in duplicate, on a set of 121 kinases. The panel is representative of the major different classes of kinases. Compounds were used at the concentration of 1 μM. In vitro, IC50 were determined on recombinant kinases by Reaction biology Corp (USA).

CHK1 = molecular target: T2, CHK1 (Homo sapiens, UniProt O14757); experiment: Kinase profiling in vitro at 1 μM; assay type: biochemical; conditions: Chk1; compound at 1 μM; read-out: percentage of remaining activity of recombinant kinase
T2 sequence (O14757 1-476): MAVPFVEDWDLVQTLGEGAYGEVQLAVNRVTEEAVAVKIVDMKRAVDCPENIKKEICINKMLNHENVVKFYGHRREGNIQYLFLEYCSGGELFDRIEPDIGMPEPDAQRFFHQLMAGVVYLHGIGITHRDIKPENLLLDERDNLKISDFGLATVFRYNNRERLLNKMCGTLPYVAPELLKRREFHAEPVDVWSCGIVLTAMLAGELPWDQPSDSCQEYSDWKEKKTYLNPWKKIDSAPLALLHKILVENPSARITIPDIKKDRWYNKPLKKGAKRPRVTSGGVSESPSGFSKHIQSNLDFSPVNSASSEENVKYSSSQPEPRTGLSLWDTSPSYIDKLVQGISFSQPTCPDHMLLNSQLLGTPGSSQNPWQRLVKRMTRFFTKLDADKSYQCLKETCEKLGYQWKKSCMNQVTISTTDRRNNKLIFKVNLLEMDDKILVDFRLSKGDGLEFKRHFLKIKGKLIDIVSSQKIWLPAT
Protocol: as §1, §2, §3

Chk2 = Chk2 (Homo sapiens, UniProt O96017); experiment: Kinase profiling in vitro at 1 μM; assay type: biochemical; conditions: compound at 1 μM, read-out: percentage of remaining activity of recombinant kinase
Chk2, sequence (O96017 whole entry, species assumed): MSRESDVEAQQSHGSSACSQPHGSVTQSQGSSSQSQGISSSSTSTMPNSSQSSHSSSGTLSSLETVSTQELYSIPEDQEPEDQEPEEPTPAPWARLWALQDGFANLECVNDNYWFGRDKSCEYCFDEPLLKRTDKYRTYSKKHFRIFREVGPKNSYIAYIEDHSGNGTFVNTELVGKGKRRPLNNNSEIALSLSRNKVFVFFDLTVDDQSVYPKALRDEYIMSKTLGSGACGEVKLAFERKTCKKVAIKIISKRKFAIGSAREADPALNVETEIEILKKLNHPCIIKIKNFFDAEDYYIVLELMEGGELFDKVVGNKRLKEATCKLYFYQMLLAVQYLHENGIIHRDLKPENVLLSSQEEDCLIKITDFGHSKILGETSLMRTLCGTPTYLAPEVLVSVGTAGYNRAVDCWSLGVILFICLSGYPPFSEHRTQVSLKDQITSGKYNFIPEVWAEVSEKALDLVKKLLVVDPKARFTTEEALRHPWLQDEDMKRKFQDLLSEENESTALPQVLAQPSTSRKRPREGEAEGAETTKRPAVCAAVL
Protocol: as §1, §2, §3

121 kinases = experiment: Kinase profiling on a set of 121 kinases; assay type: biochemical; conditions: kinases presenting the highest inhibitions; lists not exhaustive
Protocol: FIG. 1A: The potential inhibition of C14 was tested against 121 kinases, in vitro, at the concentration of 1 μM. The kinase activities, in the presence of C14, are represented, each kinase being represented by a vertical bar. Only 18 kinases have less than 30% activity in the presence of C14.
as §1, §3

Aurora B [2] = molecular target: T1, Aurora B; experiment: Aurora B inhibition in cells: Histone H3 Ser10 phosphorylation by western blotting and immunofluorescence; assay type: cell-based; design: endogenous in cells; host or cells: U2OS (human osteosarcoma); HeLa also used for the maleate salts; conditions: U2OS mitotic extracts; 1 μM overnight; western blotting (FIG. 3)
Protocol: Actin is used as control of quantity. Cells were incubated overnight in the presence of either C1, or C2 or CH21 or C14 or DMSO(C: control). All compounds were tested at 1 μM. Proteins were detected by western blotting.
Cells were incubated with the different molecules and Aurora B inhibition is estimated by western blotting (WB) and immuno fluorescent experiments. Histone H3 phosphorylated on Ser10 is used as a marker of Aurora B kinase activity and actin as an internal control. Each WB signal is compared to the control in the absence of compound. The efficiency estimated by WB is indicated by +++: very efficient inhibition to −: no inhibition. Immunofluorescent labelling of a mitotic cell by Histone H3 illustrates Aurora B kinase activity. However immunofluorescence is less sensitive than WB. Active molecules are underlined by a square and the intensity of the line indicates the efficiency of inhibition.
FIG. 10A: Immunofluorescence with phospho-Ser10-Histone H3 antibodies. Either the percentage of positive phospho-Ser10-Histone H3 is indicated or a representative mitosis shown. […] Immunofluorescent assays were realized with a specific phospho-antibody and mitotic U2OS cells are recognized by their DNA content stained with Hoechst. On the right, a representative cell or the percentage of H3-S10-P labelled mitosis.
(§4) FIG. 10B: Immunoblotting analysis of histone H3 phosphorylation. U2OS cells were incubated overnight with Nocodazole (50 nM) in the presence of either DMSO (Co) or Compounds (1 μM). Cells were then collected and lyzed. Identical amounts of the lyzed cell samples were run on 18% acrylamide gel containing SDS.
as §4, with “FIGS. 11B and 11C:” for “FIG. 10B:”, “U2OS and HeLa” for “U2OS”
Cells were incubated with the different molecules and Aurora B inhibition is estimated by western blotting and immunofluorescent experiments. Histone H3 phosphorylated on Ser10 is used as a marker of Aurora B kinase activity and actin as an internal control. Results are represented in FIGS. 4 and 10 and Table 3.
Cells were treated by compounds, harvested and lyzed in 9M urea then supplemented with Laemmli sample buffer. Cell extracts were subjected to SDS-PAGE and transferred to nitrocellulose filter (GE Healthcare). After blocking with 5% non-fat milk in PBS for at least 1 hour, the membranes were incubated with the primary antibodies. The following antibodies were used: phospho-Histone H3 Ser10 (1:2000, Upstate Biotechnology), anti LAST1 (Cell signalling), anti Aurora B (epitomics) and anti alpha-tubulin (Sigma) Anti-rabbit horseradish peroxidase (1:5000, GE Healthcare) was used as secondary antibodies. Bands were visualized by ECL technique (Amersham Bioscience).
Cells were seeded on glass coverslips and treated by compounds (1 μM) overnight. After treatment, cells were fixed in 4% formaldhehyde at 37° C. for 15 minutes, then permeabilized for 5 minutes with Triton X-100 in PBS.

HeLa cells = conditions: previously reported in Hoang et al, 2009, indicated for comparison, read-out: IC50 (in nM), antiproliferative assay; cited from earlier work
Aurora A = molecular target: T3, Aurora A (Homo sapiens, UniProt O14965); experiment: Kinase profiling in vitro at 1 μM; assay type: biochemical; conditions: Aurora A; compound at 1 μM; read-out: percentage of remaining activity of recombinant kinase
T3 sequence (O14965 1-403): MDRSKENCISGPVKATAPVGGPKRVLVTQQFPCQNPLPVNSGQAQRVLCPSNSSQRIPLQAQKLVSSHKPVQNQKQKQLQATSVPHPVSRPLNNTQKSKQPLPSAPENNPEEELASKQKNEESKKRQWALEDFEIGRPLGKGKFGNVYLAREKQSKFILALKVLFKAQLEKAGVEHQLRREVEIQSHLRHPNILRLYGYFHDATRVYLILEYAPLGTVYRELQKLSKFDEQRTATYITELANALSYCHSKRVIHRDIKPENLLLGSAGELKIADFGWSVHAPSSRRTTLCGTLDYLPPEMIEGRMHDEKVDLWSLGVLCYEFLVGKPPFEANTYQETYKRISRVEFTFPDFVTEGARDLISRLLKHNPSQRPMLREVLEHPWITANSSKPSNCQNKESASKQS
Protocol: Assays were run in vitro against recombinant kinases. The activity is reported for each kinase, grey histograms for CH21, white for C14 and gradation grey for C1. […] Therefore, C1 and C14 affect differently the Aurora kinase family.
as §1, §2, §3

T1 sequence (Q96GD4 whole entry): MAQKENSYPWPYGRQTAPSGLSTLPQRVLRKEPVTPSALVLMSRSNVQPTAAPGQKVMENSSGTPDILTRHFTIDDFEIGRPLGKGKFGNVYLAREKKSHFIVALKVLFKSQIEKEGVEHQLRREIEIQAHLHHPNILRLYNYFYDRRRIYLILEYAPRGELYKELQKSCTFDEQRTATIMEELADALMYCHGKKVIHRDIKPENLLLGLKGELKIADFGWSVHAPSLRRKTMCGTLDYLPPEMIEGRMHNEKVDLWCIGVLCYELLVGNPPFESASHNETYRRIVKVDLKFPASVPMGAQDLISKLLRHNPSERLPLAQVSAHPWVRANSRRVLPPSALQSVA

Q: With `COc1ccc2c(ccc3[nH]c4c(C)c[nH]c(=O)c4c32)c1` [Compound C2, reference compound] as the compound, how does the remaining activity at 1 µM (Aurora B [1]) read?
A: The remaining activity at 1 µM was 24%.

Q: And the remaining activity at 1 µM (CHK1)?
A: The remaining activity at 1 µM was 12%.

Q: And the remaining activity at 1 µM (Chk2)?
A: Its remaining activity at 1 µM is 3%.

Q: And the “Known Targets (%)” value (121 kinases)?
A: The value was “Aurora A Aurora B Chk1 Chk2 Flt3”.

Q: What about the “Aurora B inhibition in cellulo (Histone H3 phosphorylation, in words)” value (Aurora B [2]) of the same compound?
A: The value was “mild inhibitory activity”.

Q: And the IC50 (HeLa cells)?
A: Its IC50 is 1160 ± 150 nM.

Q: And the remaining activity at 1 µM (Aurora A)?
A: The remaining activity at 1 µM was 11%.
